Source: patent US20250325684A1, “POTENT ANTI-CANCER CYCLOTIDES” (University of Southern California, priority 2022, published 2025)
Bridge positions count the residues as written; N and C are the ends. Peptide text beside a SMILES is read from it.

Legend:
[1] = tested on: HCT116^−/−; assay: MTT cell viability, HCT116 p53-null cells; type: cell-based, human; conditions: Homo sapiens, HCT-116
Protocol: Cell viability assay in several human cancer cell lines (See Tables 1 to 10). Cell lines were cultured in RPMI 1640 (or recommended medium when indicated) medium supplemented with 10% fetal calf serum, penicillin (50 IU/mL) and streptomycin ([…]) at 37° C. in 5% CO2. Cell viability studies was carried using the MTT (3-(4,5-dimethylthiazol-2-yl)-2,5-diphenyltetrazolium bromide) assay as previously described (31). Briefly, ≈2×10^3 CRC cells were be seeded in 96-well microtiter plates in 100 μL RPMI 1640 in the presence of 10% calf serum. […] After 1 h, 210 μL/well of full complemented media was added, the cells were grown for 48 h and then treated with 20 μL of a solution of MTT (5 mg/mL) for 2 h. The medium was discarded and DMSO ([…]) was added to each well and incubated with gentle shaking for 20 min at room temperature. The absorbance at 595 nm of the solution is analyzed using a Tecan Genios Multifunctional Microplate Reader (Tecan System Inc) and the background at 670 nm subtracted. RNA-Seq analysis was performed using state-of-the-art bioinformatics tools. Briefly, raw RNA-Seq reads were mapped to human genome (hg38) using STAR aligner (v2.7.3a). Gencode Release 36 reference was used for annotation. Transcript and gene expression levels were quantified using the IsoEM (37) with default parameters. […]
(§1) Cell viability was evaluated using the MTT assay as described above.

[2] = tested on: NCl-H69; assay: MTT cell viability, NCl-H69 cells; type: cell-based, human; conditions: Homo sapiens, NCl-H69 lung small cell carcinoma, p53 Mutant
Protocol: (§2) Cell viability assay in several human cancer cell lines (See Tables 1 to 10). Cell lines were cultured in RPMI 1640 (or recommended medium when indicated) medium supplemented with 10% fetal calf serum, penicillin (50 IU/mL) and streptomycin ([…]) at 37° C. in 5% CO2. Cell viability studies was carried using the MTT (3-(4,5-dimethylthiazol-2-yl)-2,5-diphenyltetrazolium bromide) assay as previously described (31). Briefly, ≈2×10^3 CRC cells were be seeded in 96-well microtiter plates in 100 μL RPMI 1640 in the presence of 10% calf serum. […] After 1 h, 210 μL/well of full complemented media was added, the cells were grown for 48 h and then treated with 20 μL of a solution of MTT (5 mg/mL) for 2 h. The medium was discarded and DMSO ([…]) was added to each well and incubated with gentle shaking for 20 min at room temperature. The absorbance at 595 nm of the solution is analyzed using a Tecan Genios Multifunctional Microplate Reader (Tecan System Inc) and the background at 670 nm subtracted. RNA-Seq analysis was performed using state-of-the-art bioinformatics tools. Briefly, raw RNA-Seq reads were mapped to human genome (hg38) using STAR aligner (v2.7.3a). Gencode Release 36 reference was used for annotation. Transcript and gene expression levels were quantified using the IsoEM (37) with default parameters. Counts per million (CPM) method is used for normalization. Differential expression was done using DESeq2 with default parameters. Genes involved in different biological pathways (human) were searched from Geneontology (http://geneontology.org/). Bioinformatics results can be validated by using Partek Flow (v10.0.21.0912), a bioinformatics pipeline developed by Zymo Research (https://www.zymoresearch.com/).
as §1

[3] = tested on: NCl-H1299; assay: MTT cell viability, NCl-H1299 cells; type: cell-based, human; conditions: Homo sapiens, NCl-H1299 lung large cell carcinoma, p53 Null
Protocol: as §2, §1

[4] = tested on: NCl-H522; assay: MTT cell viability, NCl-H522 cells; type: cell-based, human; conditions: Homo sapiens, NCl-H522 lung adenocarcinoma, p53 Mutant (Deletion)
Protocol: as §2, §1

[5] = tested on: MIA PaCa-2; assay: MTT cell viability, MIA PaCa-2 cells; type: cell-based, human; conditions: MIA PaCa-2 pancreatic ductal adenocarcinoma, p53 Mutant
Protocol: as §2, §1

[6] = tested on: NCl-H526; assay: MTT cell viability, NCl-H526 cells; type: cell-based, human; conditions: Homo sapiens, NCl-H526 lung small cell carcinoma, p53 Null
Protocol: as §2, §1

[7] = tested on: HPAF-II; assay: MTT cell viability, HPAF-II cells; type: cell-based, human; conditions: HPAF-II pancreatic ductal adenocarcinoma, p53 Mutant
Protocol: as §2, §1

[8] = tested on: NCl-H23; assay: MTT cell viability, NCl-H23 cells; type: cell-based, human; conditions: Homo sapiens, NCl-H23 lung adenocarcinoma, p53 Mutant
Protocol: as §2, §1

[9] = tested on: MSCLC 494; assay: MTT cell viability, MSCLC 494 cells; type: cell-based; conditions: Mus musculus, MSCLC 494 murine small cell lung cancer
Protocol: as §2, §1

[10] = tested on: PANC-1; assay: MTT cell viability, PANC-1 cells; type: cell-based, human; conditions: PANC-1 pancreatic ductal adenocarcinoma, p53 Mutant
Protocol: as §2, §1

[11] = tested on: CFPAC-1; assay: MTT cell viability, CFPAC-1 cells; type: cell-based, human; conditions: CFPAC-1 pancreatic ductal adenocarcinoma, p53 Mutant
Protocol: as §2, §1

[12] = tested on: SW480; assay: MTT cell viability, SW480 cells; type: cell-based, human; conditions: Homo sapiens, SW480 colon adenocarcinoma, p53 Mutant
Protocol: as §2, §1

[13] = tested on: BxPC-3; assay: MTT cell viability, BxPC-3 cells; type: cell-based, human; conditions: BxPC-3 pancreatic ductal adenocarcinoma, p53 Mutant
Protocol: as §2, §1

[14] = tested on: HCT116^+/+; assay: MTT cell viability, HCT116 p53 wild-type cells; type: cell-based, human; conditions: Homo sapiens, HCT-116
Protocol: as §2, §1

[15] = tested on: NCl-A549; assay: MTT cell viability, NCl-A549 cells; type: cell-based, human; conditions: Homo sapiens, NCl-A549 lung adenocarcinoma, p53 WT
Protocol: as §2, §1

[16] = tested on: Jurkat; assay: MTT cell viability, Jurkat cells; type: cell-based, human; conditions: Homo sapiens, Jurkat childhood T acute lymphoblastic leukemia, p53 Mutant
Protocol: as §2, §1

[17] = tested on: MV4-11; assay: MTT cell viability, MV4-11 cells; type: cell-based, human; conditions: Homo sapiens, MV4-11 childhood acute monocytic leukemia, p53 WT
Protocol: as §2, §1

[18] = tested on: U937; assay: MTT cell viability, U937 cells; type: cell-based, human; conditions: Homo sapiens, U-937, U937 adult acute monocytic leukemia, p53 Mutant
Protocol: as §2, §1

[19] = tested on: Caco-2; assay: MTT cell viability, Caco-2 cells; type: cell-based, human; conditions: Homo sapiens, Caco-2 colon adenocarcinoma, p53 Mutant
Protocol: as §2, §1

[20] = tested on: MOLM-13; assay: MTT cell viability, MOLM-13 cells; type: cell-based, human; conditions: Homo sapiens, MOLM-13 adult acute myeloid leukemia, p53 WT
Protocol: as §2, §1

[21] = tested on: SKOV 3; assay: MTT cell viability, SKOV 3 ovarian cells; type: cell-based, human; conditions: p53 Mutant
Protocol: (§3) Cell viability assay in several human cancer cell lines (See Tables 1 to 10). Cell lines were cultured in RPMI 1640 (or recommended medium when indicated) medium supplemented with 10% fetal calf serum, penicillin (50 IU/mL) and streptomycin ([…]) at 37° C. in 5% CO2. Cell viability studies was carried using the MTT (3-(4,5-dimethylthiazol-2-yl)-2,5-diphenyltetrazolium bromide) assay as previously described (31). Briefly, ≈2×10^3 CRC cells were be seeded in 96-well microtiter plates in 100 μL RPMI 1640 in the presence of 10% calf serum. After 24 h incubation the cells were washed with PBS and treated with 30 μL/well of PBS or RPMI 1640 (or recommended) media containing cyclotides MCo-52, MCoTI-I (used as negative control), nutlin-3a (used as positive control) or MI-77301 (used as positive control for p53-mutated or p53-null cells) at the indicated doses for 1 h at 37° C. in 5% CO2. After 1 h, 210 μL/well of full complemented media was added, the cells were grown for 48 h and then treated with 20 μL of a solution of MTT (5 mg/mL) for 2 h. The medium was discarded and DMSO ([…]) was added to each well and incubated with gentle shaking for 20 min at room temperature. The absorbance at 595 nm of the solution is analyzed using a Tecan Genios Multifunctional Microplate Reader (Tecan System Inc) and the background at 670 nm subtracted. RNA-Seq analysis was performed using state-of-the-art bioinformatics tools. Briefly, raw RNA-Seq reads were mapped to human genome (hg38) using STAR aligner (v2.7.3a). Gencode Release 36 reference was used for annotation. Transcript and gene expression levels were quantified using the IsoEM (37) with default parameters. Counts per million (CPM) method is used for normalization. Differential expression was done using DESeq2 with default parameters. Genes involved in different biological pathways (human) were searched from Geneontology (http://geneontology.org/). Bioinformatics results can be validated by using Partek Flow (v10.0.21.0912), a bioinformatics pipeline developed by Zymo Research (https://www.zymoresearch.com/).
(§4) Tables 1 through 10 show in vitro activity of cyclotide MCo-52-2-cTAT against different human cancer cell lines, some with null-, mutated, or wildtype p53 phenotypes. Cell viability was evaluated using the MTT assay as described above.

[22] = tested on: DU145; assay: MTT cell viability, DU145 cells; type: cell-based; conditions: DU145 prostate carcinoma, p53 Mutant, read-out: Cell viability, Human Prostate Cancer Cells
Protocol: as §3, §4

[23] = tested on: AsPC-1; assay: MTT cell viability, AsPC-1 cells; type: cell-based, human; conditions: AsPC-1 pancreatic ductal adenocarcinoma, p53 Mutant
Protocol: as §2, §1

[24] = tested on: NIHOVCAR3; assay: MTT cell viability, NIHOVCAR3 ovarian cells; type: cell-based, human; conditions: p53 Mutant
Protocol: as §3, §4

[25] = tested on: PC-3; assay: MTT cell viability, PC-3 cells; type: cell-based; conditions: PC-3 prostate carcinoma, p53 Mutant, read-out: Cell viability, Human Prostate Cancer Cells
Protocol: as §3, §4

[26] = tested on: Capan-1; assay: MTT cell viability, Capan-1 cells; type: cell-based, human; conditions: Capan-1 pancreatic ductal adenocarcinoma, p53 Mutant
Protocol: as §2, §1

[27] = tested on: SW626; assay: MTT cell viability, SW626 cells; type: cell-based, human; conditions: SW626 ovarian cells, p53 Mutant; MTT (Table 7); read-out: Cell Viability Assay
Protocol: as §2, §1

[28] = tested on: SW1990; assay: MTT cell viability, SW1990 cells; type: cell-based, human; conditions: SW1990 pancreatic adenocarcinoma, p53 Mutant (Deletion)
Protocol: as §2, §1

[29] = tested on: A2780; assay: MTT cell viability, A2780 ovarian cells; type: cell-based, human; conditions: p53 WT
Protocol: as §3, §4

[30] = tested on: LNCaP; assay: MTT cell viability, LNCaP cells; type: cell-based; conditions: LNCaP prostate carcinoma, p53 WT, read-out: Cell viability, Human Prostate Cancer Cells
Protocol: as §3, §4

[31] = tested on: ES-2; assay: MTT cell viability, ES-2 ovarian cells; type: cell-based, human; conditions: p53 Mutant
Protocol: as §3, §4

CC(C)(C)C[C@@H]1N[C@@H](C(=O)N[C@H]2CC[C@H](O)CC2)[C@H](c2cccc(Cl)c2F)[C@]12C(=O)Nc1cc(Cl)ccc12 [MI-77301]
EC50 [1]: 23.7 ± 1.9 µM
EC50 [2]: 31.7 ± 5.2 µM
EC50 [3]: 21.5 ± 2.5 µM
EC50 [4]: 22.7 ± 2.8 µM
EC50 ([5]; Homo sapiens): 10.5 ± 1.6 µM
EC50 [6]: 9.7 ± 1.8 µM
EC50 ([7]; Homo sapiens): 6.7 ± 1 µM
EC50 [8]: 10.7 ± 1.9 µM
EC50 [9]: 15.8 ± 2.2 µM
EC50 ([10]; Homo sapiens): 12.7 ± 1.6 µM
EC50 ([11]; Homo sapiens): 22.1 ± 1.6 µM
EC50 [12]: 26.1 ± 3.3 µM
EC50 ([13]; Homo sapiens): 17.3 ± 2.3 µM
EC50 [14]: 2.7 ± 0.2 µM
EC50 [15]: 15.8 ± 2.2 µM
EC50 [16]: 12.1 ± 1.6 µM
EC50 [17]: 0.3 ± 0.03 µM
EC50 [18]: 9.6 ± 2.2 µM
EC50 [19]: > 50 µM
EC50 [20]: 0.7 ± 0.1 µM

CC[C@H](C)[C@@H]1NC(=O)[C@@H]2CSSC[C@@H]3NC(=O)[C@H](C(C)C)NC(=O)CNC(=O)CNC(=O)[C@H](CC(=O)O)NC(=O)[C@H](CO)NC(=O)CNC(=O)[C@H](CO)NC(=O)CNC(=O)[C@@H]4CSSC[C@H](NC(=O)[C@H](CC(=O)O)NC(=O)[C@H](CO)NC(=O)[C@H](CC(=O)O)NC(=O)[C@H](CCCNC(=N)N)NC(=O)[C@H](CCCNC(=N)N)NC(=O)[C@H](CSSC[C@H](NC1=O)C(=O)N[C@@H](CCCNC(=N)N)C(=O)N[C@@H](Cc1c[nH]cn1)C(=O)N[C@@H](CC(=O)O)C(=O)N[C@@H](CO)C(=O)N[C@@H](Cc1ccc(O)cc1)C(=O)N4)NC(=O)[C@H](CC(C)C)NC(=O)[C@H](CC(C)C)NC(=O)[C@H](Cc1ccc(O)cc1)NC(=O)[C@H](CC(C)C)NC(=O)[C@H](CC(N)=O)NC(=O)[C@@H]1CCCN1C3=O)C(=O)N1CCC[C@H]1C(=O)NCC(=O)N[C@@H](C)C(=O)N2 [Cyclotide 52-2] (cyclo(ACICRHDSYCGSGSDGGVCPNLYLLCRRDSDCPG); disulfide 2-19, 4-26, 10-32)
EC50 [21]: > 100 µM
EC50 [22]: > 100 µM
EC50 [5]: > 100 µM
EC50 [7]: > 100 µM
EC50 [23]: > 100 µM
EC50 [24]: > 100 µM
EC50 [25]: > 100 µM
EC50 [26]: > 100 µM
EC50 [10]: > 100 µM
EC50 [11]: > 100 µM
EC50 [27]: > 100 µM
EC50 [28]: > 100 µM
EC50 [13]: > 100 µM
EC50 [29]: > 100 µM
EC50 [30]: > 100 µM
EC50 [31]: > 100 µM
